{"source": "paper PMC9964336", "about": "“Neosuberitenone, a New Sesterterpenoid Carbon Skeleton; New Suberitenones; and Bioactivity against Respiratory Syncytial Virus, from the Antarctic Sponge Suberites sp” (Marine Drugs, 2023)", "data": [{"system": "ESKAPE pathogens", "assay": "Antibacterial screen", "assay_type": "cell-based", "details": "not given", "values": [{"compound": "CC(=O)OC1CC2(C)CC(O)(C3CC(=O)C(C)=CC3O)CCC2C2(C)CCCC(C)(C)C12", "note": "(stereo not drawn) [Compound 11, suberitenone B]", "antibacterial activity": "inactive"}, {"compound": "CC(=O)OC1CC2(C)C(O)C(C3CC(=O)C(C)=CC3O)=CCC2C2(C)CCCC(C)(C)C12", "note": "(stereo not drawn) [Compound 3, Suberitenone F]", "antibacterial activity": "inactive"}, {"compound": "CC(=O)OC1CC2(C)C=C(C3CC(=O)C(C)=CC3O)CCC2C2(C)CCCC(C)(C)C12", "note": "(stereo not drawn) [Compound 10, suberitenone A]", "antibacterial activity": "inactive"}]}, {"system": "not listed separately", "assay": "Cytotoxicity assay (MTT) in uninfected A549 cells", "assay_type": "cell-based", "details": "human, means ± SEM of triplicate samples", "method": "To test for cell viability, duplicate 96-well plates of uninfected A549 cells were set up in parallel with the RSV antiviral assay. Extracts were diluted and used to treat cells as described above for the RSV antiviral assay. The negative control for cytotoxicity was 2% DMSO while the positive was 2 μM (final concentration) of PDKI inhibitor. After the 24 h incubation period, the cells were processed for an MTT Proliferation Assay (Provost and […] Research) according to the manufacturer's protocol. Absorbance at 570 nm was measured by a microplate luminometer and standardized to control as above. Two percent DMSO and 2 μM PDK1 inhibitor (CalBioChem) were used as negative and positive controls for cell death, respectively. Statistical analysis was performed using GraphPad Prism software version 9.4.1.", "units": {"CC50 at 24 h": "µM"}, "values": [{"compound": "COC1C(C)C(=O)CC(C2(O)CCC3C(C)(CC(OC(C)=O)C4C(C)(C)CCCC43C)C2)C1O", "note": "(stereo not drawn) [Compound 5, Suberitenone H]", "CC50 at 24 h": "51.1 ± 17.5"}, {"compound": "CC(=O)O[C@@H]1C[C@@]2(C)C(=O)C([C@H]3CC(=O)C(C)=C[C@H]3O)=CCC2[C@@]2(C)CCCC(C)(C)C12", "note": "(stereo partly drawn) [Compound 4, Suberitenone G]", "CC50 at 24 h": "40.7 ± 8.3"}, {"compound": "CC(=O)OC1CC2(C)CC(O)(C3CC(=O)C(C)=CC3O)CCC2C2(C)CCCC(C)(C)C12", "note": "(stereo not drawn) [Compound 11, suberitenone B]", "CC50 at 24 h": "67.6 ± 16.3"}, {"compound": "CC(=O)OC1CC2(C)C(O)C(C3CC(=O)C(C)=CC3O)=CCC2C2(C)CCCC(C)(C)C12", "note": "(stereo not drawn) [Compound 3, Suberitenone F]", "CC50 at 24 h": "36 ± 5.3"}, {"compound": "CC(=O)OC1CC2(C)C=C(C3CC(=O)C(C)=CC3O)CCC2C2(C)CCCC(C)(C)C12", "note": "(stereo not drawn) [Compound 10, suberitenone A]", "CC50 at 24 h": "33.3 ± 1.3"}, {"compound": "CC(=O)OC1CC2(C)C(CCC3(C4CC(=O)C(C)=CC4O)OC23)C2(C)CCCC(C)(C)C12", "note": "(stereo not drawn) [Compound 2, Suberitenone E]", "CC50 at 24 h": "87.3 ± 38.1"}]}, {"system": "MRSA", "assay": "not given", "parameters": "method as in doi:10.1021/jo00128a034, PMID 15104501, doi:10.1016/j.tetlet.2004.04.091, doi:10.1016/j.tetlet.2018.07.055", "details": "cited from earlier work", "values": [{"compound": "oxaspirosuberitenone", "antibacterial activity against MRSA": "mild antibacterial activity"}]}, {"system": "HIV gene expression", "assay": "not given", "parameters": "method as in PMID 27768313", "details": "cited from earlier work", "values": [{"compound": "anvilone A", "HIV gene expression": "turned on HIV gene expression"}]}, {"system": "RSV", "assay": "RSV antiviral assay (Renilla luciferase reporter virus rA2-Rluc in A549 cells)", "assay_type": "cell-based, respiratory syncytial virus", "details": "not given", "method": "(§1) A549 (CCL-185, ATCC) cells were seeded at 1.6 × 10^4 cells in 100 μL of 5% FBS/1X penicillin–streptomycin/F12 medium per well in 96-well µClear® black plates with a clear bottom (Greiner 655090). The cells were infected with 400 PFU/well of a recombinant RSV encoding Renilla luciferase as an additional transcription unit (rA2-Rluc) in a total volume of 50 µL/well and allowed to adsorb for 1 h. Purified compounds were serially diluted two-fold in triplicate and 50 µL/well of the diluted extracts were added to the infected cells. After further incubation at 37 °C and 5% CO2 for 24 h, the supernatants were removed and cells were lysed using Renilla lysis buffer (Promega). Luciferase activity was measured with the Renilla Luciferase reagent (Promega) and BioTek Synergy Mx microplate luminometer using Gen5 version 2.00.18 software. The RSV antiviral effect for the test samples was determined by normalizing to the DMSO-treated control samples and multiplying by 100 to obtain the percent of control. Statistical analysis was performed using GraphPad Prism software version 9.4.1.", "values": [{"compound": "CC(=O)OC1CC2(C)CC(O)(C3CC(=O)C(C)=CC3O)CCC2C2(C)CCCC(C)(C)C12", "note": "(stereo not drawn) [Compound 11, suberitenone B]", "activity against RSV (in words)": "active"}, {"compound": "CC(=O)OC1CC2(C)C(O)C(C3CC(=O)C(C)=CC3O)=CCC2C2(C)CCCC(C)(C)C12", "note": "(stereo not drawn) [Compound 3, Suberitenone F]", "activity against RSV (in words)": "active"}, {"compound": "CC(=O)OC1CC2(C)C=C(C3CC(=O)C(C)=CC3O)CCC2C2(C)CCCC(C)(C)C12", "note": "(stereo not drawn) [Compound 10, suberitenone A]", "activity against RSV (in words)": "active"}]}, {"system": "RSV", "assay": "RSV antiviral assay (Renilla luciferase reporter virus rA2-Rluc in A549 cells)", "assay_type": "cell-based, respiratory syncytial virus", "details": "Selectivity index = CC50/IC50", "method": "as §1", "values": [{"compound": "COC1C(C)C(=O)CC(C2(O)CCC3C(C)(CC(OC(C)=O)C4C(C)(C)CCCC43C)C2)C1O", "note": "(stereo not drawn) [Compound 5, Suberitenone H]", "Selectivity Index": 4.7}, {"compound": "CC(=O)O[C@@H]1C[C@@]2(C)C(=O)C([C@H]3CC(=O)C(C)=C[C@H]3O)=CCC2[C@@]2(C)CCCC(C)(C)C12", "note": "(stereo partly drawn) [Compound 4, Suberitenone G]", "Selectivity Index": 3.7}, {"compound": "CC(=O)OC1CC2(C)CC(O)(C3CC(=O)C(C)=CC3O)CCC2C2(C)CCCC(C)(C)C12", "note": "(stereo not drawn) [Compound 11, suberitenone B]", "Selectivity Index": 21.1}, {"compound": "CC(=O)OC1CC2(C)C(O)C(C3CC(=O)C(C)=CC3O)=CCC2C2(C)CCCC(C)(C)C12", "note": "(stereo not drawn) [Compound 3, Suberitenone F]", "Selectivity Index": 3.7}, {"compound": "CC(=O)OC1CC2(C)C=C(C3CC(=O)C(C)=CC3O)CCC2C2(C)CCCC(C)(C)C12", "note": "(stereo not drawn) [Compound 10, suberitenone A]", "Selectivity Index": 4.3}, {"compound": "CC(=O)OC1CC2(C)C(CCC3(C4CC(=O)C(C)=CC4O)OC23)C2(C)CCCC(C)(C)C12", "note": "(stereo not drawn) [Compound 2, Suberitenone E]", "Selectivity Index": 4.3}]}, {"system": "RSV", "assay": "RSV antiviral assay (Renilla luciferase reporter virus rA2-Rluc in A549 cells)", "assay_type": "cell-based, respiratory syncytial virus", "details": "at 25 µg/mL", "method": "as §1", "values": [{"compound": "CC(=O)OC1CC2(C)C=C3C4CC(=O)C(C)(CC4O)C3CC2C2(C)CCCC(C)(C)C12", "note": "(stereo not drawn) [Compound 1, Neosuberitenone A]", "viral inhibitory effects": "did not show any viral inhibitory effects"}]}, {"system": "RSV", "assay": "RSV antiviral assay (Renilla luciferase reporter virus rA2-Rluc in A549 cells)", "assay_type": "cell-based, respiratory syncytial virus", "details": "human respiratory syncytial virus, A549, 24 h, read-out: IC50 (RSV antiviral)", "method": "as §1", "units": {"IC50": "µM"}, "values": [{"compound": "COC1C(C)C(=O)CC(C2(O)CCC3C(C)(CC(OC(C)=O)C4C(C)(C)CCCC43C)C2)C1O", "note": "(stereo not drawn) [Compound 5, Suberitenone H]", "IC50": "10.9 ± 1.8"}, {"compound": "CC(=O)O[C@@H]1C[C@@]2(C)C(=O)C([C@H]3CC(=O)C(C)=C[C@H]3O)=CCC2[C@@]2(C)CCCC(C)(C)C12", "note": "(stereo partly drawn) [Compound 4, Suberitenone G]", "IC50": "11 ± 1.3"}, {"compound": "CC(=O)OC1CC2(C)CC(O)(C3CC(=O)C(C)=CC3O)CCC2C2(C)CCCC(C)(C)C12", "note": "(stereo not drawn) [Compound 11, suberitenone B]", "IC50": "3.2 ± 0.4"}, {"compound": "CC(=O)OC1CC2(C)C(O)C(C3CC(=O)C(C)=CC3O)=CCC2C2(C)CCCC(C)(C)C12", "note": "(stereo not drawn) [Compound 3, Suberitenone F]", "IC50": "9.8 ± 1.4"}, {"compound": "CC(=O)OC1CC2(C)C=C(C3CC(=O)C(C)=CC3O)CCC2C2(C)CCCC(C)(C)C12", "note": "(stereo not drawn) [Compound 10, suberitenone A]", "IC50": "7.8 ± 0.2"}, {"compound": "CC(=O)OC1CC2(C)C(CCC3(C4CC(=O)C(C)=CC4O)OC23)C2(C)CCCC(C)(C)C12", "note": "(stereo not drawn) [Compound 2, Suberitenone E]", "IC50": "20.5 ± 0.7"}]}, {"system": "RSV", "assay": "RSV antiviral assay (Renilla luciferase reporter virus rA2-Rluc in A549 cells)", "assay_type": "cell-based, respiratory syncytial virus", "details": "human respiratory syncytial virus, A549, read-out: EC50 against RSV (Table S12)", "method": "as §1", "units": {"EC50": "µM"}, "values": [{"compound": "COC1C(C)C(=O)CC(C2(O)CCC3C(C)(CC(OC(C)=O)C4C(C)(C)CCCC43C)C2)C1O", "note": "(stereo not drawn) [Compound 5, Suberitenone H]", "EC50": 10.9}, {"compound": "CC(=O)O[C@@H]1C[C@@]2(C)C(=O)C([C@H]3CC(=O)C(C)=C[C@H]3O)=CCC2[C@@]2(C)CCCC(C)(C)C12", "note": "(stereo partly drawn) [Compound 4, Suberitenone G]", "EC50": 11}, {"compound": "CC(=O)OC1CC2(C)CC(O)(C3CC(=O)C(C)=CC3O)CCC2C2(C)CCCC(C)(C)C12", "note": "(stereo not drawn) [Compound 11, suberitenone B]", "EC50": 3.5}, {"compound": "CC(=O)OC1CC2(C)C(O)C(C3CC(=O)C(C)=CC3O)=CCC2C2(C)CCCC(C)(C)C12", "note": "(stereo not drawn) [Compound 3, Suberitenone F]", "EC50": 9.8}, {"compound": "CC(=O)OC1CC2(C)C=C(C3CC(=O)C(C)=CC3O)CCC2C2(C)CCCC(C)(C)C12", "note": "(stereo not drawn) [Compound 10, suberitenone A]", "EC50": 7.9}, {"compound": "CC(=O)OC1CC2(C)C(CCC3(C4CC(=O)C(C)=CC4O)OC23)C2(C)CCCC(C)(C)C12", "note": "(stereo not drawn) [Compound 2, Suberitenone E]", "EC50": 20.5}, {"compound": "CC(=O)OC1CC2(C)C=C3C4CC(=O)C(C)(CC4O)C3CC2C2(C)CCCC(C)(C)C12", "note": "(stereo not drawn) [Compound 1, Neosuberitenone A]", "EC50": "> 50"}]}, {"system": "RSV", "assay": "RSV antiviral assay (Renilla luciferase reporter virus rA2-Rluc in A549 cells)", "assay_type": "cell-based, respiratory syncytial virus", "details": "human respiratory syncytial virus, A549, read-out: IC50 (RSV antiviral, text)", "method": "as §1", "units": {"IC50": "µM"}, "values": [{"compound": "CC(=O)OC1CC2(C)CC(O)(C3CC(=O)C(C)=CC3O)CCC2C2(C)CCCC(C)(C)C12", "note": "(stereo not drawn) [Compound 11, suberitenone B]", "IC50": 3.5}, {"compound": "CC(=O)OC1CC2(C)C=C(C3CC(=O)C(C)=CC3O)CCC2C2(C)CCCC(C)(C)C12", "note": "(stereo not drawn) [Compound 10, suberitenone A]", "IC50": 7.9}]}, {"system": "not listed separately", "assay": "Stability in solution (NMR / reversed-phase HPLC observation)", "assay_type": "physicochemical", "details": "CDCl3, NMR solvent", "method": "While NMR data were collected on purified suberitenone I (6), the signals decreased in intensity while those of a new species grew in intensity. […] Thus, suberitenone J (7) is the oxaspiro-ring-opened isomer, existing in equilibrium with 6. When the two were separated by reversed-phase HPLC, both reverted to an equilibrium mixture of ~3:1 6:7 over 24 h.", "values": [{"compound": "CC(=O)O[C@@H]1C[C@@]2(C)C(=O)C([C@H]3CC(=O)C(C)=C[C@H]3O)=CCC2[C@@]2(C)CCCC(C)(C)C12", "note": "(stereo partly drawn) [Compound 4, Suberitenone G]", "stability in CDCl3": "decomposition was observed"}]}, {"system": "Candida strains", "assay": "Antifungal screen", "assay_type": "cell-based", "details": "several Candida strains", "values": [{"compound": "CC(=O)OC1CC2(C)CC(O)(C3CC(=O)C(C)=CC3O)CCC2C2(C)CCCC(C)(C)C12", "note": "(stereo not drawn) [Compound 11, suberitenone B]", "antifungal activity": "inactive"}, {"compound": "CC(=O)OC1CC2(C)C(O)C(C3CC(=O)C(C)=CC3O)=CCC2C2(C)CCCC(C)(C)C12", "note": "(stereo not drawn) [Compound 3, Suberitenone F]", "antifungal activity": "inactive"}, {"compound": "CC(=O)OC1CC2(C)C=C(C3CC(=O)C(C)=CC3O)CCC2C2(C)CCCC(C)(C)C12", "note": "(stereo not drawn) [Compound 10, suberitenone A]", "antifungal activity": "inactive"}]}, {"system": "panel of tumor cell lines", "assay": "not given", "details": "cited from earlier work", "values": [{"compound": "isosuberitenone B", "cytotoxicity against a panel of tumor cell lines": "weak cytotoxicity"}, {"compound": "19-episuberitenone B", "cytotoxicity against a panel of tumor cell lines": "weak cytotoxicity"}]}]}
